# In patent publication US20230158015A1, “DRUG COMBINATIONS FOR INHIBITING INFLAMMATION AND SRC KINASE ACTIVATION FOLLOWING INVASIVE SURGICAL PROCEDURES” (SINTETICA S.A., priority 2020, published 2023):
# Read-outs that look alike come from different tables or passages of the source.
# Tests used:
# [1] = system: receptor protein tyrosine phosphatase; conditions: human endothelial cells, independent of µ-opioid receptor expression; cited from earlier work
# p-Src / total Src [2] = assay type: cell-based, mouse
# Experimental: On day 1, mouse KPC-105 cells were cultured until 300,000 cells per well in a 6 well plate were obtained. On day 2, the cells were treated with 0, 0.5, 1,5, 10, 15, 30, 50 and 100 µM lidocaine for 30 minutes. Plates were then collected and washed with phosphate buffered saline and stored at -80° C. Cells were subsequently lysed with 100 µl of radioimmunoprecipitation assay buffer with protease and phosphatase buffers.
# (§1) Protein estimation was done using a Bradford assay under the following conditions: • A Western Blot was stripped with 6 M guanidine hydrochloride after p-Src protein blocking to probe with total Src protein. • 10% SDS-PAGE 10 well Blocking: 5% bovine serum albumin for p-Src blot. • P-Src-Tyr416 (GeneTex GTX81151) Rb: 1:1000 in 5% bovine serum albumin, Overnight. • Total Src (Cell Signaling Technology 2108S ) Rb mAb 1:1000 overnight in 5% milk. • GAPDH (Invitrogen# AM4300) : 1:5000 in 5% milk overnight. • Wash: 4x for 5 minutes each with 1x TBST. • Developed using 50% femto for the p-Src protein and homemade ECL substrate for total Src and GAPDH protein.
# Example 4 evaluated endogenous Src and p-Src in 10 µM lidocaine treated mouse KPC-105 cells at different time points.
# Example 5 evaluated endogenous Src and p-Src in mouse KPC-105 cells treated with 10 10 µM lidocaine for different time points, and increasing doses of methylnaltrexone after one hour of incubation. Western Blot banding patterns were generated using 15 µg /lane (NP40 lysates) 10% SDS PAGE over a 6-hour duration (lidocaine) and a 1-hour duration (methylnaltrexone).
# • P-Src-Tyr416 (GeneTex # GTX81151) Rb: 1:1000 in 5% bovine serum albumin o/n at 4° C. • 10 µg /lane (NP40 lysates) 10% SDS PAGE • Total Src (CST # 2108S ) Rb mAb 1:1000 in 5% bovine serum albumin o/n at 4° C.
# • P-Src-Tyr416 (GeneTex # GTX81151) Rb: 1:1000 in 5% bovine serum albumin 3 hours at room temperature • 10 µg /lane (NP40 lysates) 10% SDS PAGE • Total Src (CST # 2108S ) Rb mAb 1:1000 in 5% bovine serum albumin 3 hours at room temperature
# • P-Src-Tyr416 (GeneTex # GTX81151) 1:2000 in 5% bovine serum albumin, o/n at 4° C. • Total Src (CST # 2108S ) 1:3000 in 5% bovine serum albumin, o/n at 4° C. • Vinculin (ProteinTech) 1:4000 in 5% milk o/n at 4° C.
# • P-Src-Tyr416 (GeneTex # GTX81151) 1:2000 in 5% bovine serum albumin, o/n at 4C • Total Src (CST # 2108S ) 1:3000 in 5% bovine serum albumin, o/n at 4C
# p-Src / total Src [3] = experiment: Total Src and p-Src expression in AsPc 1 human pancreatic cancer cell line (Western blot); assay type: cell-based
# Experimental: (§2) Example 10 evaluated the effect of 10 µM lidocaine (L), 100 nM methylnaltrexone (M) and the combination of 10 µM lidocaine + 100 nM methylnaltrexone (L+M) for 1 hour on total Src and p-Src expression in a human pancreatic cancer cell line (AsPc 1).
# (§3) • P-Src-Tyr416 (GeneTex # GTX81151) 1:2000 in 5% bovine serum albumin, at room temperature, 4 hours • Total Src (CST # 2108S) 1:3000 in 5% bovine serum albumin, at room temperature, 4 hours
# p-Src / total Src [4] = experiment: Total Src and p-Src expression in MiaPaCa 2 human pancreatic cancer cell line (Western blot); assay type: cell-based; conditions: 10 µM lidocaine, 100 nM methylnaltrexone or both, one hour
# Experimental: as §3
# as §2, with “Example 11” for “Example 10”, “line (MiaPaCa 2). Experimental conditions were identical to Example 10.” for “line (AsPc 1).”
# p-Src / total Src [5] = experiment: Total Src and p-Src expression in Panc1 human pancreatic cancer cell line (Western blot); assay type: cell-based; conditions: 10 µM lidocaine, 100 nM methylnaltrexone or both, time points up to 6 hours, fresh media
# Experimental: as §3
# Example 12 evaluated the effect of 10 µM lidocaine (L), 100 nM methylnaltrexone (M) and the combination of 10 µM lidocaine + 100 nM methylnaltrexone (L+M) on total Src and p-Src expression in a human pancreatic cancer cell line (Panc1) at multiple time points up to 6 hours, in fresh media. Experimental conditions were identical to Example 10.
# [6] = system: LPS-challenged C57BL/6 mice; experiment: LPS-induced inflammation model, H&E histopathology of lungs and spleen; assay type: in vivo, mouse
# Experimental: (§4) C57BL/6J mice (6-8 weeks) were purchased from Charles River Laboratories (USA) and acclimatized for at least 1 week before use. All mice were housed in a pathogen-free facility. The mice received LPS for 24 hours. Following 24 hours, mice were treated either with lidocaine alone or methylnaltrexone alone or a combination of both, as shown in Table 1.
# (§5) At the conclusion of the study, the blood and tissue samples were collected for further study. The serum was used to determine pro-inflammatory cytokines using the LEGENDplex™ mouse inflammation panel (BioLegend, USA) kit followed by flow cytometry. The lungs and spleen tissue samples were used for hematoxylin and eosin (H&E) staining and immunohistochemical analyses for immune cells, including macrophages and natural killer (NK) cells, B cells, T cells, and its subsets. For histopathology and immunohistochemistry (IHC), tissue samples were prepared by cutting 4-µm sections from the paraffin blocks. IHC staining was performed by methods described earlier. The images were captured using bright field microscopy (Nikon Microscope). Two independent investigators evaluated the H&E and all immunohistochemical staining. For slide scoring, each investigator assessed the tissues and gave a score of 0 (no expression) to 4+ (strong uniform expression) as described previously. The data were expressed either as the mean ± SD or mean ± SEM by using Graph Pad Prism software.
# [7] = system: LPS-induced serum inflammatory cytokines; experiment: LPS-induced inflammation model, serum inflammatory cytokines (LEGENDplex, flow cytometry); assay type: in vivo, mouse; conditions: serum of treated mice
# Experimental: as §4, §5
# Gram-negative bacterial infections are the main cause of acute lung injury, and LPS, which is the main component of the Gram-negative bacteria cell wall, is the major stimulus for the release of inflammatory mediators. Therefore, we measured the effect of lidocaine alone, methylnaltrexone alone, or a combination of lidocaine and methylnaltrexone on LPS-induced serum inflammatory cytokines profiles. Mouse inflammatory cytokines were measured in serum of control and LPS-challenged mice treated with drugs as described in Table 1, using the LEGENDplex™ mouse inflammation panel (BioLegend, USA) kit followed by flow cytometry as per manufacturer’s specifications. […] However, serum tumor necrosis factor-alpha (TNF-α), monocyte chemoattractant protein 1 (MCP- 1), interleukin 10 (IL-10), interleukin 6 (IL-6), and interleukin 17A (IL-17A) levels were found decreased in mice challenged with LPS and treated with lidocaine and methylnaltrexone together (FIGS. 14C-G). IL-1, IL-6, IL-17A, MCP-1, and TNFα are pro- inflammatory cytokines associated with inflammatory signaling. Taken together, these findings indicate that combined treatment of lidocaine and methylnaltrexone has the potential to suppress inflammatory signaling.
# [8] = system: immune cells in lungs and spleen of LPS-challenged mice; experiment: LPS-induced inflammation model, IHC staining of immune cells in lungs and spleen; assay type: in vivo, mouse; conditions: lungs and spleen sections
# Experimental: as §4
# as §5, with “The data were expressed either as the mean ± SD or mean ± SEM by using Graph Pad Prism software.” left out
# [9] = system: human pulmonary microvascular endothelial cell; conditions: with 5-FU and bevacizumab; cited from earlier work
# [10] = system: patients with advanced disease and cancer; conditions: regular clinical doses; cited from earlier work
# Src protein [11] = experiment: p-Src activation in TNF-α treated KPC-105 mouse cell line (Western blot); assay type: cell-based; conditions: TNF-α 20 ng/ml
# Experimental: (§6) On day 1, KPC-105 mouse and human pancreatic cancer cell lines were cultured until 300,000 cells per well in a 6 well plate were obtained. On day 2, each cell line was treated with 20 ng/ml or mouse or human TNF-α for 2-hours. Cells were then collected and washed with phosphate buffered saline and stored at -80° C. Cells were then lysed with 100 µl of radioimmunoprecipitation assay buffer with protease and phosphatase buffers.
# as §1, with “estimation was then performed using a” for “estimation was done using a”, “10% SDS-PAGE with 15 well Blocking:” for “10% SDS-PAGE 10 well Blocking:”, “for p-Src blot P-Src-Tyr416 (GeneTex” for “for p-Src blot. • P-Src-Tyr416 (GeneTex”, “overnight in 5 % milk. •” for “overnight in 5% milk. •”, “homemade ECL for total” for “homemade ECL substrate for total”
# Src protein [12] = experiment: p-Src activation in TNF-α treated human pancreatic cancer cell line (Western blot); assay type: cell-based; conditions: TNF-α 20 ng/ml
# Experimental: as §6
# as §1, with “estimation was then performed using a” for “estimation was done using a”, “10% SDS-PAGE with 15 well Blocking:” for “10% SDS-PAGE 10 well Blocking:”, “for p-Src blot P-Src-Tyr416 (GeneTex” for “for p-Src blot. • P-Src-Tyr416 (GeneTex”, “overnight in 5 % milk. •” for “overnight in 5% milk. •”, “homemade ECL for total” for “homemade ECL substrate for total”
# [13] = Example 8, 10 µM lidocaine, 100 nM methylnaltrexone or both, different time points
Molecule,receptor protein tyrosine phosphatase activity [1],"total Src (p-Src / total Src [2]; Example 5, 10 µM lidocaine over 6 hours, increasing doses of methylnaltrexone, 1 hour)","concentrations attenuating Src phosphorylation (p-Src / total Src [2]; Example 5, 1 hour incubation)","phosphorylation of Src (p-Src / total Src [2]; Example 6, 100 nM methylnaltrexone, different time points)",phosphorylation of Src (p-Src / total Src [2]; [13]),total Src (p-Src / total Src [2]; [13]),"Src after Src normalization (p-Src / total Src [3]; 100 nM methylnaltrexone exposure, preliminary results)","p-Src activity (p-Src / total Src [3]; 10 µM lidocaine, 100 nM methylnaltrexone or both, one hour)",p-Src (p-Src / total Src [4]),p-Src (p-Src / total Src [5]),"H&E staining, histopathology of lungs ([6]; LPS challenged mice, lungs)","histological examination of spleen ([6]; LPS challenged mice, spleen)","LPS-induced inflammation (overall conclusion) ([6]; mouse model, drug alone)",serum interferon-gamma (IFNγ) level [7],serum interleukin 1 alpha (IL-1α) level [7],F4/80 positive area (macrophages) [8],inhibition of VEGF-induced cell proliferation and migration [9],overall survival [10],time of maximum activation of Src protein (Src protein [11]) [min],time of maximum activation of Src protein (Src protein [12]) [min]
O=C1CC[C@@]2(O)[C@H]3Cc4ccc(O)c5c4[C@@]2(CCN3CC2CC2)[C@H]1O5 [naltrexone],not,–,–,–,–,–,–,–,–,–,–,–,–,–,–,–,–,–,–,–
C[N@+]1(CC2CC2)CC[C@]23c4c5ccc(O)c4O[C@H]2C(=O)CC[C@@]3(O)[C@H]1C5 [methylnaltrexone],increased,not affected,above 50 nM,attenuates phosphorylation of Src in KPC-105 cells starting at 2 hours,attenuated phosphorylation of Src after 1 hour of exposure,decreased total Src after 1 hour of exposure,no increase in Src,attenuated p-Src activity,attenuated p-Src,initially decreased p-Src at 30 minutes and 1 hour,"perivascular edema and accumulation of mixed cell infiltration within blood, and lymphatic vessels","increased number of erythrocytes in the red pulp, along with mild edema",partially mitigate,insignificant changes,insignificant changes,partially decreased,synergistic effect,increased overall survival,–,–
TNF-α,–,–,–,–,–,–,–,–,–,–,–,–,–,–,–,–,–,–,45,45
